This note sets out measurements from US4874526A, “Treatment of water” (Ciba-Geigy Corporation, priority 1981, dated 1989).

Molecules are shown by their SMILES. Where two headings read alike, the source gives them in different places.

Series [1] deals with Scenedesmus obliquus. Put plainly: Algal growth inhibition (MIC), strain A (Example 7). It counts as cell-based. The conditions noted are these: Tetradesmus obliquus. As for the experimental part:
(§1) The algae was diluted (1 to 200) in further algae medium and the phosphonium compounds added to give final concentrations of 1, 2.5, 3.4 and 6.8 ppm active ingredient. The algal suspensions were then incubated in a shaking water bath at 18° C., with a daily cycle of 14 hours light and 10 hours darkness. The suspensions were assessed visually for growth of algae and the Minimum Inhibition Concentration (MIC) was recorded as the lowest concentration of product at which there was no growth for each algal strain. A similar experiment was also carried out using a mixed algal culture including strains a to d together with the following strains:
(§2) The activity of the phosphonium compounds listed below against three strains of algae is determined according to the procedure set out in example 5.

Series [2] deals with Tribonema aequale. As to the kind of experiment: Algal growth inhibition (MIC), strain B (Example 7). It counts as cell-based. The method, then: as §1, §2
Series [3] concerns Haematococcus lacustris. As to the kind of experiment: Algal growth inhibition (MIC), strain C (Example 7). The series is classed as cell-based. The method, then:
as §1
The activity of the phosphonium compounds listed below against three strains of algae is determined according to the procedure set out in example 5. The three strains of algae are:
Haematococcus lacustris (C)

The subject of series [4] is mixed culture of bacteria. As to the kind of experiment: Minimum concentration required to kill a given number of organisms (MKC), mixed culture of slime-forming bacteria, 5 hours exposure. It counts as cell-based. As for the experimental part:
The effect of the number of organisms present on the biological activity of tri-n-butyl tetradecyl phosphonium chloride was compared with that for various quaternary ammonium compounds. This was done by measuring the MKC value i.e. the minimum concentration (expressed in ppm active ingredient) of chemical required to kill a given number or organisms. In the test carried out, a suspension of a mixed culture of bacteria containing the following slime-forming organisms:
Proteus vulgaris was diluted to give suspensions containing 10^6 /ml (A), 10^5 /ml (B) and 10^4 /ml (C) bacteria. These suspensions were then exposed to varying concentrations of the biocides for 5 hours and the MKC value measured.

Series [5] in a line: Standard Ross-Miles foam test. The series is classed as physicochemical. To be noted: 0.05%; for foam production: compared with S or 22.
Series [6] has as its system Oscillatoria geminata. As to the kind of experiment: Algal growth inhibition (MIC), strain a (Example 5). The conditions noted are these: Jaaginema geminatum. It counts as cell-based. As for the experimental part: (§3) Cultures of the following strains of algae were grown in algae nutrient medium over a period of 14 days:
(a) Oscillatoria geminata
as §1, with “strains: […]” for “strains:”

The subject of series [7] is Phormidium foveolarum. Put plainly: Algal growth inhibition (MIC), strain b (Example 5). The series is classed as cell-based. The conditions noted are these: Nodosilinea foveolarum. As for the experimental part:
as §3
(b) Phormidium foveolarum
as §1, with “strains: […]” for “strains:”

The test system of series [8] is Chlorella vulgaris. Put plainly: Algal growth inhibition (MIC), strain c (Example 5). It counts as cell-based. As for the experimental part: as §3
as §1, with “strains: […]” for “strains:”

Series [9] relates to Scenedesmus spec. Put plainly: Algal growth inhibition (MIC), strain d (Example 5). The series is classed as cell-based. As for the experimental part: as §3
as §1, with “strains: […]” for “strains:”

Series [10] has as its system mixed algal culture. As to the kind of experiment: Algal growth inhibition (MIC), mixed algal culture (Example 5). It counts as cell-based. As for the experimental part:
as §1
In this experiment the concentrations of phosphonium compounds present were 2, 5, 7.5 and 10 ppm.

In series [11] the test system is germs. Put plainly: Survival rate of germs in circulation systems with cooling tower. The conditions noted are these: 3 h, 20 ppm active ingredient, read-out: Survival rate of germs 3h after biocide addition. The method, then: The compounds below were tested in circulation systems, set up on a roof, and consisting of the following:
1. A plastic barrel having a volume of 113 liters.
2. A Siemens pump (21 liters/minute delivery at a delivery hight of 3 meters).
3. A cooling tower with Oreogn pine heartwood, oak, spruce, asbestos cement and PVC panels.
120-124 liters of make-up water were added daily to achieve a half-life in the system of about one day.
The systems were inoculated naturally with airborne dust, spores and pollen.
The systems were treated with compound to be tested on the first day then on day 7, day 21 and over 45 days. The number of germs/ml of water in the system is measured before and 3 hours after addition of the compound being tested.
The germ count was carried out by standard serial dilution and plating out on Agar nutrient and, afer incubation, counting the bacterial colonies present on the surface.
In each case the dosage of compound added was 20 ppm active ingredient.

The nature of series [12]: Reduction of the surface tension of water (Example 6). To be noted: distilled water 72.8 dynes/cm. The series is classed as physicochemical. The method, then:
The effect of respective test compounds on the surface tension of water was also determined, the results being shown in the following Table:
Reduction of the surface tension.

Series [13] in a line: Foaming in the cooling system (Example 6). It counts as physicochemical.
Series [14] can be described thus: Surface tension of dilute aqueous solutions (Example 2). The conditions noted are these: FIG. 8, in comparison with 22. It counts as physicochemical. The method, then: The surface activity of the following compounds was measured by determining the surface tension of dilute aqueous solutions of the chemicals: […]
In series [15] the test system is algae. As to the kind of experiment: Anti-algal effect, algae in general. It counts as cell-based. The conditions noted are these: compared with triphenyl-dodecyl phosphonium chloride. The text has this:
The anti-algal effect of the respective test compounds was also examined. […] Thus, the compound of the invention when used in an amount of 1 ppm inhibited the algal strains chlorella vulgaris snd scenedesmus spec. (which strains are very significant strains in cooling systems) where 2, 5 or 10 ppm was required when using triphenyl-dodecyl phosphonium chloride.

The mark [16] stands for this setting: read-out: MKC, A: 10^6/ml bacteria, ppm active ingredient.
The mark [17] stands for this setting: read-out: MKC, B: 10^5/ml bacteria, ppm active ingredient.
[18] abbreviates: read-out: MKC, C: 10^4/ml bacteria, ppm active ingredient.

Consider `CCCCCCCCCCCCCC[P+](c1ccccc1)(c1ccccc1)c1ccccc1.[Br-]` [Triphenyl tetradecyl phosphonium bromide, reference compound], for which the MIC (commonly the least concentration at which growth counts as inhibited) came out at 6 µg/mL in series [1] (strain A, read-out: MIC); 3 µg/mL in series [2] (strain B, read-out: MIC); 6 µg/mL in [3] (strain C, read-out: MIC).

Consider `CCCCCCCCCC[N+](C)(C)CCCCCCCCCC.[Cl-]` [Dimethyl di-n-decyl ammonium chloride, dimethyl di-n-decyl ammonium chloride, reference compound], for which the MBC in series [4] (setting [16]) came to 25 µg/mL; in series [4] (setting [17]), 25 µg/mL; in series [4] (setting [18]), 12.5 µg/mL. The “Foam Height” value in series [5] (1 minute) came to 45 mm; in [5] (30 minutes), 40 mm; in series [5] (60 minutes), 38 mm.

Regarding `CCCCCCCCCCCC[P+](c1ccccc1)(c1ccccc1)c1ccccc1.[Cl-]` [Triphenyl dodecyl phosphonium chloride, triphenyl dodecyl phosphonium chloride, reference compound], the MIC in series [6] came out at 2.5 µg/mL; in [7], 1 µg/mL; in series [8] it was 2.5 µg/mL; in series [9], 3.4 µg/mL; in [10], 7.5 µg/mL; in [1], 3 µg/mL. Further, the MIC in series [2] and in series [3] was 3 µg/mL each time. Also, the viability at 20 ppm was determined as 3% in [11] (0 d), 72% in [11] (7 d), 110% in series [11] (21 d) and 130% in series [11] (>45 d). Moreover, the Surface tension in series [12] (5 mg/l) came out at 60.2 dynes/cm; in series [12] (10 mg/l), 59.5 dynes/cm; in series [12] (15 mg/l), 57.9 dynes/cm; in series [12] (20 mg/l), 56.4 dynes/cm; in [12] (30 mg/l) it was 53.7 dynes/cm. The “foaming in the cooling system” value in [13] was “some foaming problems were encountered”.

For `CCCCCCCCCCCCCC[P+](CCCC)(CCCC)CCCC.[Br-]` [tri-n-butyl tetradecyl phosphonium bromide], the MIC was 2.5 µg/mL in series [6] (strain a, 18° C., ppm active ingredient, read-out: MIC); 1 µg/mL in series [7] (strain b, 18° C., ppm active ingredient, read-out: MIC); 1 µg/mL in [8] (strain c, 18° C., ppm active ingredient, read-out: MIC); 1 µg/mL in [9] (strain d, 18° C., ppm active ingredient, read-out: MIC); 2 µg/mL in series [10] (mixed culture, concentrations 2, 5, 7.5 and 10 ppm, read-out: MIC); 2 µg/mL in [1] (strain A, read-out: MIC). Moreover, the MIC in [2] (strain B, read-out: MIC) came to 0.3 µg/mL; in series [3] (strain C, read-out: MIC), 2 µg/mL.

On to `CCCCCCCCCCCCCC[P+](CCCC)(CCCC)CCCC.[Cl-]` [tri-n-butyl tetradecyl phosphonium chloride], for which the MBC in series [4] (setting [16]), in series [4] (setting [17]) and in series [4] (setting [18]) was 12.5 µg/mL in each case. For the same compound, the surface activity entry in [14] is “high surface activity”. Further, the figures for the “Foam Height” value in series [5] (1 minute), in [5] (30 minutes) and in [5] (60 minutes) were 33 mm, 19 mm and 10 mm, respectively. Further, in [5], the foam production entry is “much less foam than S or 22”. For the same compound, the MIC in series [10] was 5 µg/mL; in series [2], 2 µg/mL. For the same compound, the viability at 20 ppm in series [11] (0 d) was found to be 1%; in series [11] (7 d) it was 9%; in series [11] (21 d), 6%; in series [11] (>45 d), 8%. In addition, the Surface tension in series [12] (5 mg/l) is 52.9 dynes/cm; in series [12] (10 mg/l) it was 48.8 dynes/cm; in [12] (15 mg/l), 47.1 dynes/cm; in [12] (20 mg/l), 45.6 dynes/cm; in series [12] (30 mg/l) it was 42.3 dynes/cm. Besides, the activity against algae entry in [15] was “more active against algae than triphenyl-dodecyl phosphonium chloride”.

Take `CCCCCCCCCCCC[P+](CCCC)(CCCC)CCCC.[Cl-]` [Tri-n-butyl dodecyl phosphonium chloride, tri-n-butyl dodecyl phosphonium chloride]: the surface activity result in series [14] was “high surface activity”. The “Foam Height” value in series [5] (1 minute) is recorded as 18 mm; in [5] (30 minutes), 6 mm; in [5] (60 minutes), 4 mm. In addition, the foam production entry in [5] is “much less foam than S or 22”. In addition, the MIC in [1] (strain A, read-out: MIC) is 2 µg/mL; in series [2] (strain B, read-out: MIC), 1 µg/mL; in [3] (strain C, read-out: MIC) it was 1 µg/mL.
